Assays:
[1] = molecular target: T1, Human Vitronectin Receptor (VnR) αvβ3 (Homo sapiens, UniProt P05106+P06756); assay: K/VnR test: inhibition of the binding of kistrin to human vitronectin receptor (ELISA)
T1 construct: Human vitronectin receptor was isolated from human placenta using the method of Pytela et al; from tissue; host or cells: human placenta
T1 sequence (P06756 31-889 limits assumed): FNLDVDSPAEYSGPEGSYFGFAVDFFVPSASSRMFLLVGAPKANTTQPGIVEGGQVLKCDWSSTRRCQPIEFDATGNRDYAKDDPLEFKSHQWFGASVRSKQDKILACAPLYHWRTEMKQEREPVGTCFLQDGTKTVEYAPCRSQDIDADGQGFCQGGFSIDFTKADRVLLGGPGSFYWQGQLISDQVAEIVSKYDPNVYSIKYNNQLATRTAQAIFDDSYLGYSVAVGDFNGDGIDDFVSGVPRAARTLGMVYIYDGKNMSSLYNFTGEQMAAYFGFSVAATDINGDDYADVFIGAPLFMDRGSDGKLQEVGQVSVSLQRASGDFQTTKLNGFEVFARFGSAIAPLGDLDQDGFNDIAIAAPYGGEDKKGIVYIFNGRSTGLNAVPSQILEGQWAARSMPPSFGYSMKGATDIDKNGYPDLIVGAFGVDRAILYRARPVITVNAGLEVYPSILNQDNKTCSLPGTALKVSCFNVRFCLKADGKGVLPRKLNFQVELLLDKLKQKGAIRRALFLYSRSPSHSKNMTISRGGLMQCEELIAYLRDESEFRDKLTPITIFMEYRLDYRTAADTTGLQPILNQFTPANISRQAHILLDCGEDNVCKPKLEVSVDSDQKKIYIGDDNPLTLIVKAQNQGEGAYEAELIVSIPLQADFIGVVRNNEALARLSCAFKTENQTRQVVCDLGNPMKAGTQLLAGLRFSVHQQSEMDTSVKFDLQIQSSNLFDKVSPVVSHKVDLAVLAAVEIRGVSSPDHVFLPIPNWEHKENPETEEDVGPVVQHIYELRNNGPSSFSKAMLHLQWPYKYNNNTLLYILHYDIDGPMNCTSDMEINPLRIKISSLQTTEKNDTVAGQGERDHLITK
T1 sequence (P06756 891-1048 limits assumed): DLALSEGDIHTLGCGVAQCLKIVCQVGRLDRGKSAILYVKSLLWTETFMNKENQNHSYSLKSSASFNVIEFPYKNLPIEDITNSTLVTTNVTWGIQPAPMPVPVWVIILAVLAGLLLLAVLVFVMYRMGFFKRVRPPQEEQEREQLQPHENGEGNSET
T1 sequence (P05106 27-788): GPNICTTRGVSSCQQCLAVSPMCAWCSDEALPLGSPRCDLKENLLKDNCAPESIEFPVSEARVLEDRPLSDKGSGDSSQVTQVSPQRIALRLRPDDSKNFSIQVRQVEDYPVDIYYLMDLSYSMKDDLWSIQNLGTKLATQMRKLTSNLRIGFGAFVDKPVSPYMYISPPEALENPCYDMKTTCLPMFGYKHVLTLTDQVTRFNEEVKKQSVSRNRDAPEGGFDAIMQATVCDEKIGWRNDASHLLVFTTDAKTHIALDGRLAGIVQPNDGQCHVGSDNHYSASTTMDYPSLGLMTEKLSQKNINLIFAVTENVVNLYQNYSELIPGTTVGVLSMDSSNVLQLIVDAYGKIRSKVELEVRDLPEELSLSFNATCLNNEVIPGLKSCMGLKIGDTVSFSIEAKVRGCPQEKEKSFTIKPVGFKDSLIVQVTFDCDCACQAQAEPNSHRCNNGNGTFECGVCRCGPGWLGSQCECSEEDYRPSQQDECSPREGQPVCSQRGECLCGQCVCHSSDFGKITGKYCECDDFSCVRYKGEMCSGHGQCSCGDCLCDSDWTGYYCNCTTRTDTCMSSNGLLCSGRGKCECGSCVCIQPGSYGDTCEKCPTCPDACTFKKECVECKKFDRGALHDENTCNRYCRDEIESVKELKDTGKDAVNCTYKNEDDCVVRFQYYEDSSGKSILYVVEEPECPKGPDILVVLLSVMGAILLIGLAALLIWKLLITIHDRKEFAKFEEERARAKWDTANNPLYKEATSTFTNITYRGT

| melting point | IC50 [1] [µM] | Structure (SMILES) |
| --- | --- | --- |
| 160 °C (dec.) |  | CC(C)OC(=O)[C@H](CNC(=O)c1ccc(CCC(=O)NC2=NCCCN2)s1)NC(=O)OCC12CC3CC(CC(C3)C1)C2 |
| 210 °C (dec.) |  | CC(C)COC(=O)[C@H](CNC(=O)c1ccc(CCC(=O)NC2=NCCCN2)s1)NC(=O)OCC12CC3CC(CC(C3)C1)C2 |
| 130 °C |  | O=C(O)C[C@H](NC(=O)c1ccc(CCC(=O)NC2=NCCCN2)s1)c1ccc2c(c1)OCO2 |
|  | > 10 | O=C(/C=C/c1ccc(C(=O)NC[C@H](NC(=O)OCc2ccccc2)C(=O)O)s1)NC1=NCCCN1 [Example 14, (2S)-2-Benzyloxycarbonylamino-3-((5-(2-(1,4,5,6-tetrahydropyrimidin-2-ylcarbamoyl)-vinyl)-thiophene-2-carbonyl)-amino)-propionic Acid] |
